{
  "source": "patent US11484529B2",
  "about": "“Desmethylanethole trithione derivatives for the treatment of diseases linked to mitochondrial reactive oxygen species (ROS) production” (OP2 Drugs, priority 2017, dated 2022)",
  "key": {"[1]": {"tested_on": "isolated pancreatic islets from mice", "test": "Glucose-stimulated insulin secretion (GSIS) in isolated pancreatic islets", "assay_type": "cell-based, mouse", "conditions": "AOL 10 and 20 μM, 1 hour", "procedure": "Pancreatic islets were isolated using the collagenase digestion method. Briefly, pancreas was inflated with Hanks solution containing 0.33 mg/mL of collagenase (Sigma-Aldrich), 5.6 mM glucose and 1% bovine serum albumin, pH 7.35, removed and kept at 37° C. for 6-9 minutes. After tissue digestion and exocrine removal by three consecutive washes, the islets were manually collected, under a binocular magnifier. Islets were left recovering from digestion by culturing for 20-24 hours in RPMI-1640 medium containing 11 mM glucose (Invitrogen, CA, USA) and supplemented with 2 mM glutamine, 200 IU/mL penicillin, 200 μg/mL streptomycin and 8% fetal bovine serum stripped with charcoal-dextran (Invitrogen).\nFor each static GSIS experiment, islets from two mice were first incubated for 2 hours at 37° C. in 3 mL Krebs-bicarbonate buffer solution (in mM): […] and 3 glucose, equilibrated with a mixture of 95% 02:5% C02, pH 7.4. […] Insulin secretion in each well was calculated as ng of insulin per islet and per hour of incubation, and then expressed as percentage of insulin secretion in 11 mM glucose vehicle group, which was considered 100%."}, "[2]": {"tested_on": "MPTP-treated mice", "test": "Sub-chronic MPTP mouse model of Parkinson's disease, TH-positive neurons in the substantia nigra", "assay_type": "in vivo", "conditions": "AOL 5 mg/kg i.p., 11 consecutive days; p<0.01", "procedure": "In this study, the potential neuroprotective effects of AOL were assessed by counting the number of tyrosine hydroxylase (TH)-positive neurons in the substantia nigra (SN) in the sub-chronic 1-methyl-4-phenyl-1,2,3,6-tetrahydropyridine (MPTP) mouse model of Parkinson's disease. Mice were treated with AOL (5 mg/kg; i.p.) or vehicle for 11 consecutive days. MPTP (20 mg/kg; i.p.) or saline was administered on treatment days 4-8. All mice were killed on day 12 following final administration of treatment.\nFor vehicle conditions, the test item was dissolved in 0.5% DMSO/0.95% Tween 20 in saline while AOL was administered intraperitoneally (i.p.) at the dose of 5 mg/kg. […]\nUnbiased stereological analysis was used to estimate the number of TH-immunopositive (TH+) neurons (Mercator, Explora Nova, La Rochelle, France). The boundaries of the SN were determined by examining the size and shape of the different TH+ neuronal groups. The volume was calculated by using the formula: V=ΣS td; where ΣS is the sum of surface areas, t is the average section thickness and d is the number of slices between two consecutive sections measured. […] The following formula was used to estimate the number of TH+ neurons: N=V(SN) (ΣQ−/ΣV(dis)); where N is the estimation of cell number, V is the volume of the SN, ΣQ− is the number of cells counted in the dissectors, and ΣV(dis) is the total volume of all the dissectors. […]"}, "[3]": {"tested_on": "pulmonary arterial smooth muscle cells (PASMC)", "test": "PASMC proliferation (BrdU incorporation)", "assay_type": "cell-based", "conditions": "AOL 10, 20, 60 or 100 μM, 24 hours", "procedure": "Detection of pulmonary arterial smooth muscle cells (PASMC) proliferation was assayed by using a colorimetric immunoassay kit (Roche Applied Science, Indianapolis, Ind., USA) based on the measurement of 5-bromo-2′-deoxy-uridine (BrdU) incorporation during DNA synthesis.\nIsolated PASMC were seeded in culture medium supplemented with 10% fetal calf serum (FCS) at a density of 5·10^3 cells/well/100 μL in a 96-well culture plate. The culture plate was placed in a humidified incubator at 37° C. under 5% CO2 in air. After 48 hours, cells were subjected to 48 hours of growth arrest in serum-free culture medium supplemented with 1% insulin-transferrin-selenium. At the end of this period, PASMC were incubated for 24 hours in culture medium containing either: • 0.2% FCS (control condition); • 0.2% FCS+10, 20, 60 or 100 μM AOL; • 0.2% FCS+100 μM 5HT (serotonin); • 0.2% FCS+100 μM 5HT+10, 20, 60 or 100 μM AOL; • 10% FCS; • 10% FCS+10, 20, 60 or 100 μM AOL.\nEach condition was tested in triplicate. 10 μL of BrdU (100 μM) was then added to the media and cells were incubated for an additional 2 hours at 37° C. […] Newly synthesized BrdU DNA was determined by measuring absorbance of the samples in an ELISA reader (Spectrostar/nano; BMG Labtech, Champigny-sur-Marne, France) at a wavelength of 380 nm with a reference wavelength of 490 nm."}},
  "data": [
    {"smiles": "COc1ccc(-c2cc(=S)ss2)cc1", "note": "[AOL, 5-(4-methoxyphenyl)-3H-1,2-dithiole-3-thione]", "values": [
      {"measurement": "GSIS increase as compared to the 11 mM glucose vehicle group", "setting": "[1]", "value": "65-75%"},
      {"measurement": "increase of the number of TH+ cells in the SN compared to vehicle in MPTP-treated mice", "setting": "[2]", "value": 44, "unit": "%"},
      {"measurement": "PASMC proliferation in presence of 0.2% FCS and 100 μM 5HT", "setting": "[3]", "value": "successfully inhibited the proliferation"},
      {"measurement": "PASMC proliferation induced by 10% FCS", "setting": "[3]", "value": "successfully inhibited the proliferation"}
    ]}
  ]
}
